From US8192962B2, “Processes for detecting toxic substances” (Daikin Industries, Ltd., priority 2001, dated 2012)

Tested on: Transport facilitation protein genes
Experiment: DNA chip mRNA expression in yeast, transport facilitation protein genes (Table 5)
Assay type: cell-based, Saccharomyces cerevisiae S288C
Outline: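 First, S288C yeast grown in YPD at 25° C. are dosed in log phase with one toxicant (growth-inhibiting, not lethal) for 2 h. Next, total RNA is extracted and poly(A) mRNA isolated and reverse-transcribed with Cy3/Cy5-dUTP. Finally, whole-genome chip fluorescence is read relative to unexposed cells.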

`CCCCCCCCCCCCOS(=O)(=O)[O-].[Na+]` [(18), sodium lauryl sulfate] was tested, and the “The level of expressed mRNA in the presence of chemical substance/The level of expressed mRNA in the absence of chemical substance” value (yeast gene YGR224W) was 1.3, the “The level of expressed mRNA in the presence of chemical substance/The level of expressed mRNA in the absence of chemical substance” value (yeast gene YGR260W) was 0.9 and the “The level of expressed mRNA in the presence of chemical substance/The level of expressed mRNA in the absence of chemical substance” value (yeast gene YGR281W) was 3.1. For the same compound, the “The level of expressed mRNA in the presence of chemical substance/The level of expressed mRNA in the absence of chemical substance” value (yeast gene YHL035C) was 1.2, the “The level of expressed mRNA in the presence of chemical substance/The level of expressed mRNA in the absence of chemical substance” value (yeast gene YHL040C) was 1.0 and the “The level of expressed mRNA in the presence of chemical substance/The level of expressed mRNA in the absence of chemical substance” value (yeast gene YHL047C) was 1.2. For the same compound, the “The level of expressed mRNA in the presence of chemical substance/The level of expressed mRNA in the absence of chemical substance” value (yeast gene YHR026W) was 1.1, the “The level of expressed mRNA in the presence of chemical substance/The level of expressed mRNA in the absence of chemical substance” value (yeast gene YHR092C) was 1.3 and the “The level of expressed mRNA in the presence of chemical substance/The level of expressed mRNA in the absence of chemical substance” value (yeast gene YHR094C) was 1.4. The “The level of expressed mRNA in the presence of chemical substance/The level of expressed mRNA in the absence of chemical substance” value (yeast gene YHR175W) was 1.2, the “The level of expressed mRNA in the presence of chemical substance/The level of expressed mRNA in the absence of chemical substance” value (yeast gene YIL006W) was 0.9 and the “The level of expressed mRNA in the presence of chemical substance/The level of expressed mRNA in the absence of chemical substance” value (yeast gene YIL022W) was 0.7. The “The level of expressed mRNA in the presence of chemical substance/The level of expressed mRNA in the absence of chemical substance” value (yeast gene YIL056W) was 1.2, the “The level of expressed mRNA in the presence of chemical substance/The level of expressed mRNA in the absence of chemical substance” value (yeast gene YIL088C) was 1.4 and the “The level of expressed mRNA in the presence of chemical substance/The level of expressed mRNA in the absence of chemical substance” value (yeast gene YJL034W) was 1.0. For the same compound, the “The level of expressed mRNA in the presence of chemical substance/The level of expressed mRNA in the absence of chemical substance” value (yeast gene YJL212C) was 0.5, the “The level of expressed mRNA in the presence of chemical substance/The level of expressed mRNA in the absence of chemical substance” value (yeast gene YJL219W) was 1.2 and the “The level of expressed mRNA in the presence of chemical substance/The level of expressed mRNA in the absence of chemical substance” value (yeast gene YJR077C) was 0.8. For the same compound, the “The level of expressed mRNA in the presence of chemical substance/The level of expressed mRNA in the absence of chemical substance” value (yeast gene YJR106W) was 1.3, the “The level of expressed mRNA in the presence of chemical substance/The level of expressed mRNA in the absence of chemical substance” value (yeast gene YJR121W) was 1.4 and the “The level of expressed mRNA in the presence of chemical substance/The level of expressed mRNA in the absence of chemical substance” value (yeast gene YKL016C) was 1.7. The “The level of expressed mRNA in the presence of chemical substance/The level of expressed mRNA in the absence of chemical substance” value (yeast gene YKL146W) was 0.9, the “The level of expressed mRNA in the presence of chemical substance/The level of expressed mRNA in the absence of chemical substance” value (yeast gene YKR039W) was 1.1 and the “The level of expressed mRNA in the presence of chemical substance/The level of expressed mRNA in the absence of chemical substance” value (yeast gene YKR067W) was 1.0. The “The level of expressed mRNA in the presence of chemical substance/The level of expressed mRNA in the absence of chemical substance” value (yeast gene YLL028W) was 1.2, the “The level of expressed mRNA in the presence of chemical substance/The level of expressed mRNA in the absence of chemical substance” value (yeast gene YLR081W) was 0.9 and the “The level of expressed mRNA in the presence of chemical substance/The level of expressed mRNA in the absence of chemical substance” value (yeast gene YLR295C) was 1.5. For the same compound, the “The level of expressed mRNA in the presence of chemical substance/The level of expressed mRNA in the absence of chemical substance” value (yeast gene YLR348C) was 1.0, the “The level of expressed mRNA in the presence of chemical substance/The level of expressed mRNA in the absence of chemical substance” value (yeast gene YLR378C) was 0.7 and the “The level of expressed mRNA in the presence of chemical substance/The level of expressed mRNA in the absence of chemical substance” value (yeast gene YMR011W) was 1.6. For the same compound, the “The level of expressed mRNA in the presence of chemical substance/The level of expressed mRNA in the absence of chemical substance” value (yeast gene YMR162C) was 1.1, the “The level of expressed mRNA in the presence of chemical substance/The level of expressed mRNA in the absence of chemical substance” value (yeast gene YMR203W) was 0.7 and the “The level of expressed mRNA in the presence of chemical substance/The level of expressed mRNA in the absence of chemical substance” value (yeast gene YNL055C) was 1.7. For the same compound, the “The level of expressed mRNA in the presence of chemical substance/The level of expressed mRNA in the absence of chemical substance” value (yeast gene YNL259C) was 2.4, the “The level of expressed mRNA in the presence of chemical substance/The level of expressed mRNA in the absence of chemical substance” value (yeast gene YNR072W) was 1.0 and the “The level of expressed mRNA in the presence of chemical substance/The level of expressed mRNA in the absence of chemical substance” value (yeast gene YOL119C) was 1.0. The “The level of expressed mRNA in the presence of chemical substance/The level of expressed mRNA in the absence of chemical substance” value (yeast gene YOL156W) was 0.9, the “The level of expressed mRNA in the presence of chemical substance/The level of expressed mRNA in the absence of chemical substance” value (yeast gene YOL163W) was 0.8 and the “The level of expressed mRNA in the presence of chemical substance/The level of expressed mRNA in the absence of chemical substance” value (yeast gene YOR035C) was 2.1. The “The level of expressed mRNA in the presence of chemical substance/The level of expressed mRNA in the absence of chemical substance” value (yeast gene YOR130C) was 1.1, the “The level of expressed mRNA in the presence of chemical substance/The level of expressed mRNA in the absence of chemical substance” value (yeast gene YOR153W) was 3.1 and the “The level of expressed mRNA in the presence of chemical substance/The level of expressed mRNA in the absence of chemical substance” value (yeast gene YOR273C) was 3.1. For the same compound, the “The level of expressed mRNA in the presence of chemical substance/The level of expressed mRNA in the absence of chemical substance” value (yeast gene YOR316C) was 1.0, the “The level of expressed mRNA in the presence of chemical substance/The level of expressed mRNA in the absence of chemical substance” value (yeast gene YOR332W) was 1.7 and the “The level of expressed mRNA in the presence of chemical substance/The level of expressed mRNA in the absence of chemical substance” value (yeast gene YOR348C) was 0.9. The “The level of expressed mRNA in the presence of chemical substance/The level of expressed mRNA in the absence of chemical substance” value (yeast gene YPL036W) was 0.5, the “The level of expressed mRNA in the presence of chemical substance/The level of expressed mRNA in the absence of chemical substance” value (yeast gene YPL134C) was 1.3 and the “The level of expressed mRNA in the presence of chemical substance/The level of expressed mRNA in the absence of chemical substance” value (yeast gene YPL147W) was 3.6. The “The level of expressed mRNA in the presence of chemical substance/The level of expressed mRNA in the absence of chemical substance” value (yeast gene YPL271W) was 1.3, the “The level of expressed mRNA in the presence of chemical substance/The level of expressed mRNA in the absence of chemical substance” value (yeast gene YPR192W) was 0.9 and the “The level of expressed mRNA in the presence of chemical substance/The level of expressed mRNA in the absence of chemical substance” value (yeast gene YPR194C) was 0.9.
